Assay results as given in ChEMBL document CHEMBL1143518, “Binding of isotryptamines and indenes at h5-HT6 serotonin receptors” (Bioorg Med Chem Lett, 2005).

Biological target: 5-hydroxytryptamine receptor 6 (Homo sapiens, UniProt P50406)
Experiment: Binding affinity against human 5-Hydroxytryptamine 6 receptor expressed in HEK293 cells using [3H]LSD done for 90 minutes at pH 7.4 at room temperature
Assay type: cell-based

Sequence of 5-hydroxytryptamine receptor 6 (P50406 whole entry): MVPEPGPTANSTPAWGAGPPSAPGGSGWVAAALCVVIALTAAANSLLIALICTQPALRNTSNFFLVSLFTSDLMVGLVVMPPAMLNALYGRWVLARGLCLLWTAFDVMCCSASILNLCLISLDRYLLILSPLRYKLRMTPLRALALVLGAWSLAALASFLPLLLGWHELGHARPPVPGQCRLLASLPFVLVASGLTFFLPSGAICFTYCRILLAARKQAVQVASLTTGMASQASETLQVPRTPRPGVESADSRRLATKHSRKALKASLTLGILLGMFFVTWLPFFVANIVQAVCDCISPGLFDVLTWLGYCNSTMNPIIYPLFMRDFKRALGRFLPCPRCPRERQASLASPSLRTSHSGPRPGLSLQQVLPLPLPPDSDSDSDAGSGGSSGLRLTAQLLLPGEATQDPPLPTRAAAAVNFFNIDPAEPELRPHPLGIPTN

Compound	Ki [nM]
Nc1ccc(SC2CCc3ccccc32)cc1 (configuration not stated)	4200
Nc1ccc(S(=O)(=O)C2CCc3ccccc32)cc1 (configuration not stated)	740
Nc1ccc(/C=C2\C=Cc3ccccc32)cc1	640
Nc1ccc(CC2C=Cc3ccccc32)cc1 (configuration not stated)	4470
CN(C)CCn1cc(Cc2ccc(N)cc2)c2ccccc21	50
CNCCC1=CC(Cc2ccccc2)c2ccccc21 (configuration not stated)	3
CNCCC1=CC(CCc2ccccc2)c2ccccc21 (configuration not stated)	100
Nc1ccc(CC2CCc3ccccc32)cc1 (configuration not stated)	6100
Nc1ccc(Cc2c[nH]c3ccccc23)cc1	2530
Nc1ccc(CC2=CCc3ccccc32)cc1	11800
CN(C)CCc1cn(CCc2ccccc2)c2ccccc12	12
CN(C)CCC1=C/C(=C\c2ccccc2)c2ccccc21	57
